Measured values as given in patent US10813936B2, “Crystalline form of (S)-N-(5-((R)-2-(2,5-difluorophenyl)-pyrrolidin-1-YL)-pyrazolo[1,5-A]pyrimidin-3-YL)-3-hydroxypyrrolidine-1-carboxamide hydrogen sulfate” (Array BioPharma, Inc., priority 2014, dated 2020).
Structures can show the parent of a compound that is named as a salt.

Tests used:
[1] = Accelerated stability, 40° C./75% RH, five weeks, LDPE bag; format: physicochemical; conditions: for API chemical purity over the course of the stability study: five weeks; for Assay / Chiral Potency / Total Impurities: HPLC
Experimental: Upon removal from the chamber, the samples were physically characterized by appearance, KF, TGA, DSC, XRD and PLM. The samples were also analyzed by HPLC for chromatographic purity, chiral integrity and potency. Where applicable, the data presented in the stability portion also includes the original T=0 data for comparison purposes. The data can be seen in Tables 25-29 and FIGS. 40-44.

[2] = Dynamic vapor sorption (DVS-1 system); format: physicochemical; conditions: for DVS (outcome): form after or during DVS, HCl at 50-60% RH
Experimental: For the DVS measurement a sample of crystalline form (I—HS) was cycled through changing humidity conditions to determine its hygroscopicity. The sample was analyzed using a Surface Measurement System DVS-1 Dynamic Vapor Sorption System. […] Data was collected in 1 minute intervals. Nitrogen was used as the carrier gas. […] After completion of the sorption cycle, the sample was dried using the same procedure, but all the way down to 0% RH and finally taken back to the starting point of 20% RH. The weight change during the sorption/desorption cycles were plotted, allowing for the hygroscopic nature of the sample to be determined.

[3] = Stability on aluminum slide at 40° Celsius/75% RH; format: physicochemical; conditions: time: I-HS 10 days, HCl 1 hour, HBr 2 weeks, mesylate overnight
[4] = tested on: MPRIP-TRKA oncoprotein and ERK1/2; assay: Immunoblot of phosphorylation in CUTO-3F cells; format: cell-based, human; conditions: low doses, 2 hours
Source text: (§1) Briefly, cells were lysed in RIPA buffer with Halt Protease and Phosphatase Inhibitor Cocktail (Thermo Scientific) and diluted in loading buffer (LI-COR Biosciences). The membranes were scanned and analyzed using the Odyssey Imaging System and software (LI-COR). The following antibodies were used from Cell Signaling: pTRK Y490 (rabbit polyclonal, #9141), pERK1/2 XP T202/Y204 (#9101), total ERK1/2, pAKT 5473 (rabbit mAb, #4060), and total AKT mouse clone D3A7 (#2920). TRK (C-14) rabbit polyclonal antibody was purchased from Santa Cruz Biotechnology. GAPDH (MAB374) and pTYR (4G10) are from Millipore.

[5] = tested on: TPM3-TRKA, pAKT, and pERK1/2; assay: Immunoblot of phosphorylation in KM12 cells; format: cell-based, human; conditions: low doses, 2 hours
Source text: as §1

[6] = tested on: TEL-TRKC oncoprotein, pAKT, and pERK1/2; assay: Immunoblot of phosphorylation in MO-91 cells; format: cell-based, human; conditions: low doses, 2 hours
Source text: FIG. 13 is an immunoblot showing that the crystalline form (I—HS)inhibits TEL-TRKC kinase and ERK1/2 and AKT activity in MO-91 cells.
as §1

TRKA-SHC1 complexes = assay: TRK-SHC1 proximity ligation assay in CUTO-3 cells; format: cell-based, human; conditions: 100 nM, 2 hours, versus DMSO
Experimental: PLAs are unique because they can detect functional signaling complexes between a kinase and one of its adaptors in situ. In this assay, TRKA complexed with its preferred adaptor, SHC1, which binds to Y496 in the TRKA kinase domain, was measured (FIG. 17).
Cells were seeded onto glass coverslips (in a 48 well plate) or chamber slides at 25-75 k cells/well. Cells were treated with the indicated doses and times then fixed for 15 minutes by shaking at room temperature in 4% paraformaldehyde. The cells were rinsed twice in PBS, and then the Duolink® in situ PLA® kit from SigmaAldrich in mouse/rabbit (Red) was used according to the manufacturer's protocol (catalog # DUO92101). The antibody concentrations were optimized using immunofluorescence prior to PLA experiments. […] Additionally, samples were treated with 300 mM glycine for 15 minutes prior to the blocking step, otherwise the assay was performed according to the manufacturer's protocol. The cells were mounted using Prolong® gold anti-fade reagent (with DAPI) and cured overnight prior to imaging. The images were either taken on a Nikon standard inverted fluorescent microscope at 40×, or on the 31 Marianas spinning disc confocal in the University of Colorado Anschutz Medical Campus Advance Light Microscopy Core at 40× or 100×. […]

[7] = tested on: xenograph (human) tumor derived from CUTO-3F cell line; assay: Xenograft tumor growth, CUTO-3F; format: in vivo, mice; conditions: CUTO-3F xenograft, oral daily 60 mg/kg or 200 mg/kg
Source text: (§2) The three different cancer cell lines, the CUTO-3F cell line, the KM12 cell line, and the MO-91 cell line, each express a different Trk gene fusion. […] Following implantation of one of these three different xenograph (human) tumors in mice, the change in the volume of each tumor was monitored.

[8] = tested on: xenograph (human) tumor derived from KM12 cell line; assay: Xenograft tumor growth, KM12; format: in vivo, mice; conditions: oral daily 60 mg/kg or 200 mg/kg
Source text: as §2

[9] = tested on: xenograph (human) tumor derived from MO-91 cell line; assay: Xenograft tumor growth, MO-91; format: in vivo, mice; conditions: MO-91 xenograft, oral daily 60 mg/kg or 200 mg/kg
Source text: as §2

[10] = tested on: undifferentiated sarcoma with LMNA-NTRK1 fusion; assay: Phase 1 trial case: patient with undifferentiated sarcoma; format: in vivo, human; conditions: one patient
Source text: The patient started cycle 1 day 1 three days later. The patient was seen weekly for pharmacokinetic and safety analysis.

[11] = tested on: solid tumors with NTRK-fusions; assay: Phase 1 study: response (RECIST 1.1) in NTRK-fusion patients; format: in vivo, human; conditions: 100 or 150 mg BID
Experimental: Three of the 23 patients harbored NTRK-fusions and were treated at either 100 or 150 mg BID.

[12] = Dynamic vapor sorption (IGAsorp analyzer, 25° C.); format: physicochemical
Experimental: • 1. The hygroscopicity was studied at 25° C. using an IGAsorp analyzer. • 2. About 15 mg of sample was placed in a tared mesh sample holder at an initial ambient room humidity setting of ˜35%. • 3. A total wet/dry nitrogen flow rate of 250 cc/min is used throughout the study. • 4. […] The maximum time allowed at any one humidity set point was 120 min. The sample was maintained under dry N2 after the cycle was completed. Percent weight gain was calculated based on the dry weight basis. Part One: Physical Characterization of Crystalline Form (I—HS)

[13] = Phase 1 dose escalation study: safety and pharmacokinetics
Experimental: Response is measured by RECIST Criteria, version 1.1. Serum is collected for pharmacokinetic analysis on Cycle 1 Day 1 and Day 8. Safety information is collected on all patients and the definition of dose-limiting toxicity applies to adverse events regardless of relationship to investigational product.

O=C(Nc1cnn2ccc(N3CCC[C@@H]3c3cc(F)ccc3F)nc12)N1CC[C@H](O)C1.O=S(=O)(O)O [AM(HS)1, (S)—N-(5-((R)-2-(2,5-difluorophenyl)-pyrrolidin-1-yl)-pyrazolo[1,5-a]pyrimidin-3-yl)-3-hydroxypyrrolidine-1-carboxamide hydrogen sulfate]
Peak Area Percent, RRT 0.793 ([1]; 40 C/75% RH, 5 wks.): 0.00 Peak Area Percent
Peak Area Percent, RRT 0.863 ([1]; 40 C/75% RH, 5 wks.): 1.04 Peak Area Percent
Peak Area Percent, RRT 0.981 ([1]; 40 C/75% RH, 5 wks.): 0.12 Peak Area Percent
Peak Area Percent, RRT 1.000 ([1]; 40 C/75% RH, 5 wks.): 98.83 Peak Area Percent
Peak Area Percent, RRT 1.535 ([1]; 40 C/75% RH, 5 wks.): 0.00 Peak Area Percent
KF ([1]; 40° C./75% RH, 5 wks.): 0.56 w/w %
API chemical purity over the course of the stability study ([1]; 40° C./75% RH): did not change significantly
Assay ([1]; 40° C./75% RH, 5 wks.): 80.3%
Chiral Potency ([1]; 40° C./75% RH, 5 wks.): 99.6%
Total Impurities ([1]; 40° C./75% RH, 5 wks.): 1.16%
Assay ([1]; time point 0 wks.): 79.5%
Chiral Potency ([1]; time point 0 wks.): 99.6%
Total Impurities ([1]; time point 0 wks.): 1.10%
Appearance ([1]; time point 0 wks.): Yellow Powder free
KF ([1]; time point 0 wks.): 2.00 w/w %
Peak Area Percent, RRT 0.793 ([1]; time point 0 wks.): 0.00 Peak Area Percent
Peak Area Percent, RRT 0.863 ([1]; time point 0 wks.): 0.98 Peak Area Percent
Peak Area Percent, RRT 0.981 ([1]; time point 0 wks.): 0.12 Peak Area Percent
Peak Area Percent, RRT 1.000 ([1]; time point 0 wks.): 98.89 Peak Area Percent
Peak Area Percent, RRT 1.535 ([1]; time point 0 wks.): 0.00 Peak Area Percent

Br.O=C(Nc1cnn2ccc(N3CCC[C@@H]3c3cc(F)ccc3F)nc12)N1CC[C@H](O)C1 [HBr, (S)—N-(5-((R)-2-(2,5-difluorophenyl)pyrrolidin-1-yl)pyrazolo[1,5-a]pyrimidin-3-yl)-3-hydroxypyrrolidine-1-carboxamide hydrobromide]
DVS (outcome) [2]: (deliquesced)
Stability at 40° Celsius/75% RH (aluminum slide) [3]: amorphous

Cl.O=C(Nc1cnn2ccc(N3CCC[C@@H]3c3cc(F)ccc3F)nc12)N1CC[C@H](O)C1 [HCl, (S)—N-(5-((R)-2-(2,5-difluorophenyl)pyrrolidin-1-yl)pyrazolo[1,5-a]pyrimidin-3-yl)-3-hydroxypyrrolidine-1-carboxamide hydrochloride]
DVS (outcome) [2]: form change
Stability at 40° Celsius/75% RH (aluminum slide) [3]: form change

O=C(Nc1cnn2ccc(N3CCC[C@@H]3c3cc(F)ccc3F)nc12)N1CC[C@H](O)C1 [crystalline form (I—HS), (S)—N-(5-((R)-2-(2,5-difluorophenyl)-pyrrolidin-1-yl)-pyrazolo[1,5-a]pyrimidin-3-yl)-3-hydroxypyrrolidine-1-carboxamide hydrogen sulfate]
inhibition of phosphorylation of the MPRIP-TRKA oncoprotein and ERK1/2 [4]: inhibition
inhibition of phosphorylation of TPM3-TRKA, pAKT, and pERK1/2 [5]: inhibition
inhibition of phosphorylation of the TEL-TRKC oncoprotein, pAKT, and pERK1/2 [6]: inhibition
effect on TRKA-SHC1 complexes (PLA) (TRKA-SHC1 complexes): disruption of TRKA-SHC1 complexes
growth of xenograft tumor [7]: effectively halt the growth, or decrease the rate of growth
growth of xenograft tumor [8]: effectively halt the growth, or decrease the rate of growth
growth of xenograft tumor [9]: effectively halt the growth, or decrease the rate of growth
response by RECIST 1.1 ([10]; 100 mg twice daily, CT prior to cycle 2 and cycle 3): partial response
drug-related adverse events ([10]; 4-week period of cycle 1): No drug-related adverse events
adverse events attributed to the drug ([10]; after four months of dosing): did not have any adverse events
oxygen saturation ([10]; on room air, after treatment (baseline 90% with 5 L oxygen)): 97%
CA125 levels ([10]; over cycle 1): normalized
response of the three NTRK-fusion patients [11]: partial response
hygroscopicity (DVS) [2]: non-hygroscopic
increase in mass during the sorption cycle ([2]; between 0% and 90% RH): about 1.7%
DVS (outcome) [2]: RH No change
Stability at 40° Celsius/75% RH (aluminum slide) [3]: No form change
hygroscopicity (DVS) [12]: not hygroscopic
Peak Area Percent, RRT 0.793 ([1]; 40 C/75% RH, 5 wks.): 0.07 Peak Area Percent
Peak Area Percent, RRT 0.863 ([1]; 40 C/75% RH, 5 wks.): 0.00 Peak Area Percent
Peak Area Percent, RRT 0.981 ([1]; 40 C/75% RH, 5 wks.): 0.00 Peak Area Percent
Peak Area Percent, RRT 1.000 ([1]; 40 C/75% RH, 5 wks.): 99.93 Peak Area Percent
Peak Area Percent, RRT 1.535 ([1]; 40 C/75% RH, 5 wks.): 0.00 Peak Area Percent
Appearance ([1]; 40° C./75% RH, 5 wks.): Orange Powder free
KF ([1]; 40° C./75% RH, 5 wks.): 0.21 w/w %
API chemical purity over the course of the stability study ([1]; 40° C./75% RH): did not change significantly
Assay ([1]; 40° C./75% RH, 5 wks.): 79.6%
Chiral Potency ([1]; 40° C./75% RH, 5 wks.): 99.6%
Total Impurities ([1]; 40° C./75% RH, 5 wks.): 0.07%
Assay ([1]; time point 0 wks.): 79.4%
Chiral Potency ([1]; time point 0 wks.): 99.6%
Total Impurities ([1]; time point 0 wks.): 0.14%
Appearance ([1]; time point 0 wks.): Orange Powder free
KF ([1]; time point 0 wks.): 0.28 w/w %
Peak Area Percent, RRT 0.793 ([1]; time point 0 wks.): 0.07 Peak Area Percent
Peak Area Percent, RRT 0.863 ([1]; time point 0 wks.): 0.00 Peak Area Percent
Peak Area Percent, RRT 0.981 ([1]; time point 0 wks.): 0.00 Peak Area Percent
Peak Area Percent, RRT 1.000 ([1]; time point 0 wks.): 99.86 Peak Area Percent
Peak Area Percent, RRT 1.535 ([1]; time point 0 wks.): 0.07 Peak Area Percent
adverse event: Grade 1 and 2 anemia ([13]; 23 patients): 22%
adverse event: Grade 1 and 2 dizziness ([13]; 23 patients): 26%
adverse event: Grade 1 and 2 fatigue ([13]; 23 patients): 35%
patients with dose limiting toxicities ([13]; elevated AST grade 3 (150 mg BID), delirium grade 3 unrelated (100 mg BID)): Two

CS(=O)(=O)O.O=C(Nc1cnn2ccc(N3CCC[C@@H]3c3cc(F)ccc3F)nc12)N1CC[C@H](O)C1 [Mesylate, (S)—N-(5-((R)-2-(2,5-difluorophenyl)pyrrolidin-1-yl)pyrazolo[1,5-a]pyrimidin-3-yl)-3-hydroxypyrrolidine-1-carboxamide methanesulfonate]
DVS (outcome) [2]: (crystalline)
Stability at 40° Celsius/75% RH (aluminum slide) [3]: Deliquesced

O=C(Nc1cnn2ccc(N3CCC[C@@H]3c3cc(F)ccc3F)nc12)N1CC[C@H](O)C1.O=S(=O)(O)O [AM(HS), (S)—N-(5-((R)-2-(2,5-difluorophenyl)-pyrrolidin-1-yl)-pyrazolo[1,5-a]pyrimidin-3-yl)-3-hydroxypyrrolidine-1-carboxamide hydrogen sulfate]
behaviour when exposed to humidity [1]: deliquesced
